The source of these data is patent publication US6130228A, “Polycyclic compounds” (priority 1995, dated 2000).

The conditions of series [1]: not believed to be irreversible in nature; cited from earlier work.
Series [2] deals with noradrenaline (NA) uptake. Kind of series: Monoamine Uptake Inhibition Assay, noradrenaline (synaptosomal preparation). In kind it is biochemical, rat (Sprague Dawley). As to the method: (§1) One male rat (Sprague Dawley) weighing approx. 200-250 g was sacrificed by cervical dislocation. The brain was dissected out and the cerebellum discarded. The brain was then weighed and 10 ml ice cold sucrose (0.32M) added per gram tissue. […] The pellet was discarded and the supernatant retained (crude synaptosomal preparation).
(§2) All tubes were set up in triplicate. […] 100 μl of the prepared synaptosomal preparation was added to each tube and incubated for 5 minutes in a shaking water bath at 37° C. Any reaction was stopped by plunging the tubes into an ice water bath. ^3 H NA (10^-7 M) or ^3 H 5-HT ([…]) was added to each tube and incubated for 5 minutes in a shaking water bath at 37° C. Any reaction was stopped by plunging the tubes into an ice-water bath. Accumulated monoamines were collected using a Brandell Cell Harvester under mild vacuum. Filters were rinsed (2×) using 4 ml of ice-cold 0.9% saline. Scintillation fluid was added (4 ml/tube). Radioactivity was measured on a scintillation counter.
(§3) Non-specific values were subtracted from total values. The control was taken as 100%. Drug effects were calculated as a percentage of control inhibitor value. A graph of log of drug concentration versus % control was plotted and IC50 values were calculated by interpolation.

Series [3] concerns the target T1, Acetylcholinesterase (AChE) (Rattus norvegicus, UniProt P37136).
T1 construct: The brain was removed and homogenised; from tissue; host or cells: rat brain (male Sprague Dawley), Triton X100 detergent supernatant of the EDTA-buffer pellet
In words: biochemical. The format is biochemical, Male Rats (Sprague Dawley), brain. As to the method:
(i) Enzyme Source for AChE
5 Male Rats (Sprague Dawley) weighing approx 250 g were killed by CO2 overdose and cervical dislocation.
The brain was removed and homogenised (9 strokes at 840 rpm with 4 volumes of phosphate buffer pH 7.4+10 mM (EDTA) and centrifuged at 27,000 g for 30 minutes.
The supernatant was discarded and the pellet resuspended in phosphate buffer with 10 mM EDTA+1- Triton X100 (2 ml/g wet weight). The crude homogenate was centrifuged at 27,000 g for 30-40 minutes.
The pellet was discarded and the supernatant was dispensed into 0.5 ml aliquots and stored at -20° C. until required.
Phosphate Buffer (0.1M. pH 7.4)
Made up to 500 ml with distilled H2 O, pH 7.4.
0.5 ml aliquots of brain (enzyme solution) as prepared above were thawed out. 2 ml of phosphate buffer was added to each aliquot. 2 ml of the enzyme solution was incubated with 2 ml PDS for 60 minutes at 0° C. The composition of blank, control and test solutions are given below:
0.9 ml phosphate buffer (0.1 M, pH 7.4)
0.85 ml phosphate buffer (0.1M, pH 7.4)
0.05 ml acetylthiocholine (5.2 mM)
(§4) 0.8 ml phosphate buffer (0.1M, pH 7.4)
0.05 ml Acetylthiocholine 5.2 mM
Change in absorbance was measured at 30 second intervals for 3 minutes at […]. The control was taken as 100%. Inhibitor was calculated as a percentage of the control. A graph of Log of inhibitor conc. versus % control was plotted and IC5. values calculated by interpolation.

In series [4] the target is T2, Butyrylcholinesterase (BChE) (Equus caballus, UniProt P81908).
T2 construct: purchased Sigma c-7512
T2 sequence (P81908 whole entry): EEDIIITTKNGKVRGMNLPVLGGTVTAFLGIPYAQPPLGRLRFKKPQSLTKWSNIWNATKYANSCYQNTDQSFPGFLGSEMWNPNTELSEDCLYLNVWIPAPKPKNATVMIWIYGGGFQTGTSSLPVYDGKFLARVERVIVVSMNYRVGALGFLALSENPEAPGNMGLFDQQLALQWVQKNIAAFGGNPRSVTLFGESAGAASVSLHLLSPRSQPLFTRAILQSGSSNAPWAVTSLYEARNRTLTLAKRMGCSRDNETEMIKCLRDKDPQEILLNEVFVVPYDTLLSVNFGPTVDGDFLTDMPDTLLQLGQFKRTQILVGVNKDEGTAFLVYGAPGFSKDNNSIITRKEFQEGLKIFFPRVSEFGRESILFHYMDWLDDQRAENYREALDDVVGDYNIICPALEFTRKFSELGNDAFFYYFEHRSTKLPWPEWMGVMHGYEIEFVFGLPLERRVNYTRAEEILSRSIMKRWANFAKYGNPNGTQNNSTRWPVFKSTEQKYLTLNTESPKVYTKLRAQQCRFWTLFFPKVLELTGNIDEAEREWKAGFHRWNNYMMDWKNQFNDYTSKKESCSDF
Kind of series: biochemical. Here is the method: The following components were utilised:
Phosphate Buffer (0.1M, pH 7.4)
Made up to 500 ml with distilled H2 O, pH 7.4
1 ml of enzyme solution (i), was incubated with 2 ml PDS for 60 minutes at 0° C.
Components of the assay blank, controls and test solutions are provided below:
0.9 ml phosphate buffer (0.1M, pH 7.4)
0.85 ml phosphate buffer (0.1 M, pH 7.4)
0.05 ml Acetylthiocholine (5.2 mM)
as §4
Control was taken as 100%. Inhibitor was calculated as a percentage of control. A graph of Log of inhibitor conc. versus % control was plotted and IC50 values calculated by interpolation.

For another series, the system named is 5-HT (serotonin) uptake. In kind it is biochemical, rat (Sprague Dawley). Here is the method:
as §1, §2, §3

Setting [5] is: Table 3, read-out: NA UPTAKE INHIBITION

Where two headings read alike, the source gives them in different places.

T1 sequence (P37136 32-614): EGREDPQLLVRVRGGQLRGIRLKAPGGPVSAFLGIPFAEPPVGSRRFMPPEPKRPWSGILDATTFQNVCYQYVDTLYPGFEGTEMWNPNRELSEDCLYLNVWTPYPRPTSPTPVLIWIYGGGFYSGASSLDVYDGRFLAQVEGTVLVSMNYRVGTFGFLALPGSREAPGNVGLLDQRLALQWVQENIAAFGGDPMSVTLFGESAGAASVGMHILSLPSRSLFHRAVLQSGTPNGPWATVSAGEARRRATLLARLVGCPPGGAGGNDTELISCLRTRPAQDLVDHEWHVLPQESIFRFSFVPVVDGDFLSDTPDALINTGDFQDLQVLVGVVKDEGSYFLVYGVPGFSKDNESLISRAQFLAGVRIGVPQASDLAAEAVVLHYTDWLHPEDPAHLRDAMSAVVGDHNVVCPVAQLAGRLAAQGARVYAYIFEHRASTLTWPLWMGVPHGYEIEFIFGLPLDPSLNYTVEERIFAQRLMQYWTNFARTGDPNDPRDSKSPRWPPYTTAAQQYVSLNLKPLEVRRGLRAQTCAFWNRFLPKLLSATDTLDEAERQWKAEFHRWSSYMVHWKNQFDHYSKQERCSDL

Regarding `Nc1c2c(nc3ccccc13)CCCC2` [TACRINE, reference compound], the side effect result in series [1] was “liver damage”. For the same molecule, the IC50 in series [2] (setting [5]) was 6.7 µM.

In the case of `COc1cccc2c1CCc1c-2nc2ccccc2c1N` [Compound 4, 7-Amino-5,6-dihydro-4-methoxybenz-[c]-acridine], the IC50 stood at 47.5 µM in series [3] (Table 1, form BASE, ±SEM, n = 5, read-out: IC50 AChE); 17.1 µM in series [3] (Table 1, form SALT, ±SEM, n = 5, read-out: IC50 AChE); 10.3 µM in series [4] (Table 1, form BASE, ±SEM, n = 5, read-out: IC50 BChE); 1.9 µM in series [4] (Table 1, form SALT, ±SEM, n = 5, read-out: IC50 BChE); 1.4 µM in series [2] (Table 1, form BASE, n = 5, read-out: IC50 NA UPTAKE); 12.2 µM in series [2] (Table 1, form SALT, n = 5, read-out: IC50 NA UPTAKE). The IC50 was 5.8 µM in the series on 5-HT (serotonin) uptake (Table 1, form BASE, n = 5, read-out: IC50 5HT UPTAKE) and 2.1 µM in the series with 5-HT (serotonin) uptake (Table 1, form SALT, n = 5, read-out: IC50 5HT UPTAKE).

As for `Nc1c2c(nc3c(Cl)cccc13)CCC2` [Compound 22, 9-Amino-5-chloro-2,3-dihydro-1H-cyclopenta[b] quinoline], the “AChE TACRINE RATIO” value in series [3] amounted to 0.022. Further, the IC50 in series [3] (Table 2, read-out: AChE IC50) amounted to 3.5 µM; in series [4] (Table 2, read-out: BChE IC50), 14.5 µM; in series [2] (setting [5]) it was 3.1 µM; in the series on 5-HT (serotonin) uptake (Table 3, read-out: 5-HT UPTAKE INHIBITION), 104 µM. Further, the “BChE TACRINE RATIO” value in series [4] came to 0.002. In addition, the “NA UPTAKE INHIBITION TACRINE RATIO” value in series [2] was found to be 2.161. For the same molecule, in the series on 5-HT (serotonin) uptake, the “5-HT UPTAKE INHIBITION TACRINE RATIO” value is given as 0.073.
